Experimental data published in publication PMC6116579, “Catalytic and Structural Characterization of a Browning-Related Protein in Oriental Sweet Melon (Cucumis Melo var. Makuwa Makino)” (Frontiers in Chemistry, 2018).

Target: T1, BRP (browning-related protein with PPO activity; matched to endochitinase MCHT-2) (Cucumis melo, UniProt Q9AVA8)
T1 construct: native, partially purified from fruit (ammonium sulfate, DEAE Sepharose, Sephacryl S200); about 18 kDa SDS-PAGE, 37 kDa native PAGE, homodimer
T1 sequence (Q9AVA8 21-311): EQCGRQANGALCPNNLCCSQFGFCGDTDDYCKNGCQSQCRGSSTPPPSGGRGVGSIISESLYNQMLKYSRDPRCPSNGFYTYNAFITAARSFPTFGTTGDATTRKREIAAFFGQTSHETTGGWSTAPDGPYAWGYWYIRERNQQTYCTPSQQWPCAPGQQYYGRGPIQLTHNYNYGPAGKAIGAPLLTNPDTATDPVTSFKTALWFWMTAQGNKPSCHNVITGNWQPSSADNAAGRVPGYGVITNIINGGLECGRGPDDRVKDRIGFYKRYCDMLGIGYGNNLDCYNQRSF
Assay: absorbance at […] nm, Lineweaver-Burk
Type: biochemical
Conditions: oxidation by air oxygen; 0.05 M Tris-HCl pH 7.0, 25 °C

Oc1cccc(O)c1O [Pyrogallol]
Km: 42.8 mM
